Measurements as given in patent US20060264460A1 (Wyeth, priority 2005, published 2006).

Each molecule was assayed against T1, human Cot/Tpl2 kinase (Homo sapiens, UniProt P41279) (assay: Tpl2/Cot kinase assay: GST-MEK1 phosphorylation detected by ELISA (DELFIA Eu)). Settings: 0.4 nM Tpl2, 35 nM GST-MEK1, 50 uM ATP, 1 h at 30° C.
T1 construct: human Cot/Tpl2 kinase construct encoding residues 30-398; 6His (N); made in house; host or cells: Sf9 insect cells, baculovirus system (BD Biosciences)
Type: biochemical
Method in brief: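 His-tagged human Tpl2 from Sf9 cells, Ni-affinity and size-exclusion purified (monomer). 0.4 nM Tpl2 with 35 nM GST-MEK1, 50 uM ATP, MOPS pH 7.2, 1% DMSO, 1 h at 30° C; EDTA stop. MEK1 Ser217/221 phosphorylation detected by anti-phospho-MEK1 and Eu-labelled secondary ELISA; IC50 fitted.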

T1 sequence (P41279 30-398): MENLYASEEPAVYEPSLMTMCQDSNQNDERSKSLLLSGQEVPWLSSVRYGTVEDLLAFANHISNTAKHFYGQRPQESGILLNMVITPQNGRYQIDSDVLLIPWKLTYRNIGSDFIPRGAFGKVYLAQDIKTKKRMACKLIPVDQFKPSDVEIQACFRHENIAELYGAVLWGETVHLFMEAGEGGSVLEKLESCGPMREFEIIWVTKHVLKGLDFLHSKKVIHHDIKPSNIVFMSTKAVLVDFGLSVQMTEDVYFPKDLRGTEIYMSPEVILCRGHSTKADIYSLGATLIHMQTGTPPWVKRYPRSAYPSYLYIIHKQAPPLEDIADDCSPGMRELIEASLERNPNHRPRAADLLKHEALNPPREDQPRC

| IC50 [nM] | SMILES |
| --- | --- |
| 66 | Cc1ccc[n+]([O-])c1CNc1cc(Cl)c2ncc(C#N)c(Nc3ccc(F)c(Cl)c3)c2c1 [Example 196, 8-chloro-4-[(3-chloro-4-fluorophenyl)amino]-6-{[(3-methyl-1-oxidopyridin-2-yl)methyl]amino}quinoline-3-carbonitrile] |
| 870 | N#Cc1cnc2c(Cl)cc(NCc3c(CCCO)ncn3COCc3ccccc3)cc2c1Nc1ccc(F)c(Cl)c1 [Example 198, 6-({[1-[(benzyloxy)methyl]-4-(3-hydroxypropyl)-1H-imidazol-5-yl]methyl}amino)-8-chloro-4-[(3-chloro-4-fluorophenyl)amino]quinoline-3-carbonitrile] |
| 1400 | CCNc1cc(Cl)c2ncc(C#N)c(Nc3ccc(F)c(Cl)c3)c2c1 [Example 199, 8-chloro-4-[(3-chloro-4-fluorophenyl)amino]-6-(ethylamino)quinoline-3-carbonitrile] |
| 68 | N#Cc1cnc2c(Cl)cc(NCCc3nnn[nH]3)cc2c1Nc1ccc(F)c(Cl)c1 [Example 200, 8-chloro-4-[(3-chloro-4-fluorophenyl)amino]-6-{[2-(1H-tetrazol-5-yl)ethyl]amino}quinoline-3-carbonitrile] |
| 9.1 | Cn1cnc(CNc2cc(Cl)c3ncc(C#N)c(Nc4ccc(F)c(Cl)c4)c3c2)c1 [Example 201, 8-chloro-4-[(3-chloro-4-fluorophenyl)amino]-6-{[(1-methyl-1H-imidazol-4-yl)methyl]amino}quinoline-3-carbonitrile] |
| 2600 | N#Cc1cnc2c(Cl)cc(NCC3=NCCN3)cc2c1Nc1ccc(F)c(Cl)c1 [Example 204, 8-chloro-4-[(3-chloro-4-fluorophenyl)amino]-6-[(4,5-dihydro-1H-imidazol-2-ylmethyl)amino]quinoline-3-carbonitrile] |
| 3.2 | N#Cc1cnc2c(Cl)cc(NCc3[nH]cnc3CCCO)cc2c1Nc1ccc(F)c(Cl)c1 [Example 205, 8-chloro-4-[(3-chloro-4-fluorophenyl)amino]-6-({[4-(3-hydroxypropyl)-1H-imidazol-5-yl]methyl}amino)quinoline-3-carbonitrile] |
| 7400 | CN(C)C=Nc1cc(Cl)c2ncc(C#N)c(Nc3ccc(F)c(Cl)c3)c2c1 [Example 206, N′-{8-chloro-4-[(3-chloro-4-fluorophenyl)amino]-3-cyanoquinolin-6-yl}-N,N-dimethylimidoformamide] |
| 1900 | N#Cc1cnc2c(Cl)cc(NCCN=[N+]=[N-])cc2c1Nc1ccc(F)c(Cl)c1 [Example 210, 6-[(2-azidoethyl)amino]-8-chloro-4-[(3-chloro-4-fluorophenyl)amino]quinoline-3-carbonitrile] |
| 350 | N#Cc1cnc2c(Cl)cc(NCCn3ccnn3)cc2c1Nc1ccc(F)c(Cl)c1 [Example 211, 8-chloro-4-[(3-chloro-4-fluorophenyl)amino]-6-{[2-(1H-1,2,3-triazol-1-yl)ethyl]amino}quinoline-3-carbonitrile] |
| 400 | N#Cc1cnc2c(Cl)cc(NCCn3ccnc3)cc2c1Nc1ccc(F)c(Cl)c1 [Example 212, 8-chloro-4-[(3-chloro-4-fluorophenyl)amino]-6-{[2-(1H-imidazol-1-yl)ethyl]amino}quinoline-3-carbonitrile] |
| 1500 | N#Cc1cnc2c(Cl)cc(NCCn3cc(CCO)nn3)cc2c1Nc1ccc(F)c(Cl)c1 [Example 213, 8-chloro-4-[(3-chloro-4-fluorophenyl)amino]-6-({2-[4-(2-hydroxyethyl)-1H-1,2,3-triazol-1-yl]ethyl}amino)quinoline-3-carbonitrile] |
| 16 | CC(C)c1nc[nH]c1CNc1cc(Cl)c2ncc(C#N)c(Nc3ccc(F)c(Cl)c3)c2c1 [Example 214, 8-chloro-4-[(3-chloro-4-fluorophenyl)amino]-6-{[(4-isopropyl-1H-imidazol-5-yl)methyl]amino}quinoline-3-carbonitrile] |
| 5.9 | N#Cc1cnc2c(Cl)cc(NCc3nnn4ccccc34)cc2c1Nc1ccc(F)c(Cl)c1 [Example 216, 6-([1,2,3]triazolo[1,5-a]pyridin-3-ylmethylamino)-8-chloro-4-(3-chloro-4-fluorophenylamino)quinoline-3-carbonitrile] |
| 7.2 | Cn1cc(CNc2cc(Cl)c3ncc(C#N)c(Nc4ccc(F)c(Cl)c4)c3c2)nn1 [Example 217, 8-chloro-4-[(3-chloro-4-fluorophenyl)amino]-6-{[(1-methyl-1H-1,2,3-triazol-4-yl)methyl]amino}quinoline-3-carbonitrile] |
| 32 | COCC(=O)NCCn1cc(CNc2cc(Br)c3ncc(C#N)c(Nc4ccc(F)c(Cl)c4)c3c2)nn1 [Example 218, N-(2-(4-((8-bromo-4-(3-chloro-4-fluorophenylamino)-3-cyanoquinolin-6-ylamino)methyl)-1H-1,2,3-triazol-1-yl)ethyl)-2-methoxyacetamide] |
| 65 | COCC(=O)NCCn1cc(CNc2cc(Cl)c3ncc(C#N)c(Nc4ccc(F)c(Cl)c4)c3c2)nn1 [Example 219, N-(2-(4-((8-chloro-4-(3-chloro-4-fluorophenylamino)-3-cyanoquinolin-6-ylamino)methyl)-1H-1,2,3-triazol-1-yl)ethyl)-2-methoxyacetamide] |
| 26 | Cn1ccnc1CNc1cc(Br)c2ncc(C#N)c(Nc3ccc(F)c(Cl)c3)c2c1 [Example 220, 8-bromo-4-[(3-chloro-4-fluorophenyl)amino]-6-{[(1-methyl-1H-imidazol-2-yl)methyl]amino}quinoline-3-carbonitrile] |
| 28 | Cn1cc(CNc2cc(Br)c3ncc(C#N)c(Nc4ccc(F)c(Cl)c4)c3c2)nn1 [Example 221, 8-bromo-4-(3-chloro-4-fluorophenylamino)-6-((1-methyl-1H-1,2,3-triazol-4-yl)methylamino)quinoline-3-carbonitrile] |
| 10 | N#Cc1cnc2c(Cl)cc(NCc3cn(CCN4CCOC4=O)nn3)cc2c1Nc1ccc(F)c(Cl)c1 [Example 222, 8-chloro-4-(3-chloro-4-fluorophenylamino)-6-((1-(2-(2-oxooxazolidin-3-yl)ethyl)-1H-1,2,3-triazol-4-yl)methylamino)quinoline-3-carbonitrile] |
| 37 | N#Cc1cnc2c(Br)cc(NCc3cn(CCN4CCOC4=O)nn3)cc2c1Nc1ccc(F)c(Cl)c1 [Example 223, 8-bromo-4-(3-chloro-4-fluorophenylamino)-6-((1-(2-(2-oxooxazolidin-3-yl)ethyl)-1H-1,2,3-triazol-4-yl)methylamino)quinoline-3-carbonitrile] |
| 280 | N#Cc1cnc2c(Cl)cc(NCc3cn(CS(=O)(=O)N4CCOCC4)nn3)cc2c1Nc1ccc(F)c(Cl)c1 [Example 224, 8-chloro-4-(3-chloro-4-fluorophenylamino)-6-((1-(morpholinosulfonylmethyl)-1H-1,2,3-triazol-4-yl)methylamino)quinoline-3-carbonitrile] |
| > 40000 | Cc1cc2ncc(C#N)c(Nc3ccc(F)c(Cl)c3)c2cc1NCc1cccnc1 [Example 225, 4-[(3-Chloro-4-fluorophenyl)amino]-7-methyl-6-[(pyridin-3-ylmethyl)amino]quinoline-3-carbonitrile] |
| > 40000 | Cc1cc2ncc(C#N)c(Nc3ccc(F)c(Cl)c3)c2cc1NCc1cnc[nH]1 [Example 226, 4-[(3-chloro-4-fluorophenyl)amino]-6-[(1H-imidazol-5-ylmethyl)amino]-7-methylquinoline-3-carbonitrile] |
